# Laboratory results: the supplement of paper PMC10307832
# Legend:
# Test in all cases: relative viability (nuclei count vs DMSO), 5 days (fraction); higher = more cells survive
# [1] = compound: CCC1=CN=CN=C1N2CCN(CC2)CC3=NC4=C(N3)C=C(C=C4)C(F)(F)F + C[C@]1(O)C[C@@H](c2nc(-c3ccc4ccc(-c5ccccc5)nc4c3)c3c(N)nccn32)C1 [Linsitinib] (partner 1 µM)
# Summary of the method: (§1)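 Dosing by pin tool came one day after lung cancer cell lines were seeded in 1536-well plates, using either one drug or a fixed anchor-drug dose plus five library-drug doses (not always all listed) in √10 steps. After 5 days, nuclei were counted on 4× images. Relative viability is treated-well nuclei count divided by vehicle-well nuclei count, and values are medians of duplicate plates.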
# [2] = compound: CCn1c(-c2nonc2N)nc2cnc(Oc3cccc(NC(=O)c4ccc(OCCN5CCOCC5)cc4)c3)cc21 + Nc1nc2[nH]cc(CCc3ccc(C(=O)N[C@@H](CCC(=O)O)C(=O)O)cc3)c2c(=O)[nH]1 [Pemetrexed] (partner 0.2 µM)
# Summary of the method: as §1
# Mirin + OSI-027 = compound: N=C1NC(=O)/C(=C/c2ccc(O)cc2)S1 [Mirin] + COc1cccc2cc(-c3nc([C@H]4CC[C@H](C(=O)O)CC4)n4ncnc(N)c34)[nH]c12 [OSI-027] (partner 0.5 µM)
# Summary of the method: as §1
# [3] = compound: CCC1=CN=CN=C1N2CCN(CC2)CC3=NC4=C(N3)C=C(C=C4)C(F)(F)F + CC(C)C[C@H](NC(=O)[C@H](Cc1ccccc1)NC(=O)c1cnccn1)B(O)O [Bortezomib] (partner 0.002 µM)
# Summary of the method: as §1
Cell Line,relative viability ([1]; first compound 0.04 µM),relative viability ([1]; first compound 0.1265 µM),relative viability ([1]; first compound 0.4 µM),relative viability ([1]; first compound 1.265 µM),relative viability ([1]; first compound 4 µM),relative viability ([2]; first compound 0.04 µM),relative viability ([2]; first compound 0.1265 µM),relative viability ([2]; first compound 0.4 µM),relative viability ([2]; first compound 1.265 µM),relative viability ([2]; first compound 4 µM),relative viability (Mirin + OSI-027; first compound 0.25 µM),relative viability (Mirin + OSI-027; first compound 0.7906 µM),relative viability (Mirin + OSI-027; first compound 7.906 µM),relative viability (Mirin + OSI-027; first compound 25 µM),relative viability ([3]; first compound 0.04 µM),relative viability ([3]; first compound 0.1265 µM),relative viability ([3]; first compound 0.4 µM),relative viability ([3]; first compound 1.265 µM),relative viability ([3]; first compound 4 µM),relative viability (Mirin + OSI-027; first compound 2.5 µM)
201T,0.922,1.04,0.998,0.88,1.01,0.356,0.347,0.343,0.263,0.303,0.75,0.832,0.629,0.64,1.09,1.06,1.04,1.09,1.14,–
A549,0.596,0.549,0.629,0.28,0.615,–,–,–,–,–,–,–,–,–,–,–,–,–,–,–
A-427,1.12,1.11,1.03,1.05,0.857,0.876,0.708,0.529,0.228,0.318,0.484,–,0.272,0.411,0.926,0.896,0.936,0.878,0.989,0.525
ABC-1,0.873,0.777,0.676,0.631,0.831,–,–,–,–,–,0.442,0.346,0.467,0.225,0.315,0.314,0.312,0.402,0.37,0.484
BEN,0.868,0.82,0.802,0.531,0.477,0.725,0.647,0.395,0.412,0.534,0.288,0.306,0.286,0.192,0.646,0.656,0.708,0.621,0.49,0.273
CAL-12T,0.744,0.771,0.731,0.754,0.901,1.81,1.38,1.39,1.04,0.996,0.797,–,0.695,0.525,–,0.997,0.888,1.06,1.07,0.681
COR-L23,0.864,0.94,0.815,0.874,0.914,0.211,0.19,0.194,0.164,0.123,0.803,0.816,0.69,0.728,0.988,0.91,0.964,0.956,0.957,0.761
COR-L 105,0.953,0.925,0.873,0.839,0.977,1.13,0.965,1.09,0.615,0.507,0.7,0.684,0.975,0.434,0.861,0.913,0.737,0.475,0.836,0.829
Calu-6,0.883,0.851,0.871,0.819,1.02,–,–,–,–,–,–,–,–,–,0.969,0.924,0.871,0.884,0.829,–
ChaGo-K-1,–,–,–,–,–,0.263,0.25,0.238,0.235,0.239,0.582,0.396,0.492,0.432,–,0.97,0.964,1.09,0.985,0.55
EBC-1,0.996,0.811,0.782,0.759,0.897,–,–,–,–,–,–,–,–,–,0.557,0.528,0.6,0.458,0.486,–
EKVX,1.01,0.897,0.954,0.769,0.905,0.516,0.371,0.346,0.359,0.313,0.691,0.672,0.591,0.67,0.994,0.945,0.983,0.952,1.13,0.761
EMC-BAC-2,0.816,0.771,0.808,0.728,0.791,0.419,0.377,0.298,0.298,0.311,0.389,0.378,0.307,0.312,1.07,1.01,1.05,0.917,1.15,0.337
EPLC-272H,1.07,0.96,1,1.43,1.33,0.392,0.328,0.253,0.239,0.119,0.339,–,0.213,0.224,0.696,0.885,0.829,1.43,1.08,0.241
H3255,0.937,0.956,0.904,0.825,0.772,0.528,0.512,0.503,0.432,0.431,0.558,0.536,0.475,0.616,0.671,0.849,0.739,0.816,0.756,0.636
HARA,0.915,0.832,0.919,0.733,0.831,0.211,0.233,0.205,0.181,0.212,0.491,–,0.356,0.437,1.12,1.05,1.06,1.01,0.964,0.56
HCC-15,0.945,0.801,0.815,0.812,0.846,0.229,0.214,0.217,0.197,0.205,0.81,0.557,0.585,0.466,0.931,0.921,0.953,1.08,1.05,0.614
HCC-44,0.652,0.648,0.666,0.643,0.634,0.62,0.652,0.547,0.678,0.425,0.441,0.491,0.428,0.485,0.853,0.798,0.854,0.89,0.866,0.483
HCC-78,0.38,0.584,0.478,0.464,0.335,0.959,0.847,–,0.929,0.951,0.37,0.366,0.292,0.349,0.538,0.592,0.59,0.528,0.517,0.419
HCC-366,0.907,0.595,0.525,–,0.661,0.166,0.173,0.131,0.0447,0.0523,0.974,–,0.711,0.882,1,1.06,1.05,–,1.01,0.919
HCC-827,0.951,0.915,0.955,0.923,0.926,0.27,0.261,0.266,0.267,0.285,0.785,0.71,0.737,0.744,1.01,0.997,1.02,0.95,0.953,0.748

Cell Line,relative viability ([1]; first compound 0.04 µM),relative viability ([1]; first compound 0.1265 µM),relative viability ([1]; first compound 0.4 µM),relative viability ([1]; first compound 1.265 µM),relative viability ([1]; first compound 4 µM),relative viability ([2]; first compound 0.04 µM),relative viability ([2]; first compound 0.1265 µM),relative viability ([2]; first compound 0.4 µM),relative viability ([2]; first compound 1.265 µM),relative viability ([2]; first compound 4 µM),relative viability (Mirin + OSI-027; first compound 0.25 µM),relative viability (Mirin + OSI-027; first compound 0.7906 µM),relative viability (Mirin + OSI-027; first compound 7.906 µM),relative viability (Mirin + OSI-027; first compound 25 µM),relative viability ([3]; first compound 0.04 µM),relative viability ([3]; first compound 0.1265 µM),relative viability ([3]; first compound 0.4 µM),relative viability ([3]; first compound 1.265 µM),relative viability ([3]; first compound 4 µM),relative viability (Mirin + OSI-027; first compound 2.5 µM)
HOP-62,1.27,1.02,0.983,0.87,0.77,0.319,0.309,0.284,0.228,0.252,0.836,0.787,0.663,0.688,0.869,0.819,0.648,0.677,0.947,0.846
IA-LM,0.664,0.617,0.568,0.45,0.464,–,–,–,–,–,–,–,–,–,0.786,0.911,0.761,0.752,0.702,–
LC-2-ad,0.818,0.87,0.765,0.813,0.788,0.257,0.269,0.241,0.199,0.206,0.851,0.776,0.567,0.492,0.993,0.959,0.969,0.963,0.952,0.822
LCLC-97TM1,0.23,0.185,0.158,0.166,0.202,0.228,0.196,–,0.192,0.18,0.455,0.263,0.291,0.292,–,0.516,0.598,0.668,0.942,0.341
LK-2,0.739,0.515,0.588,0.319,0.598,0.308,0.354,0.151,0.139,0.265,0.195,0.154,0.138,0.146,–,–,–,–,–,0.198
NCI-H358,0.809,0.656,0.656,0.657,0.607,0.176,0.169,0.19,0.178,0.151,0.783,0.843,0.542,0.368,–,–,–,–,–,0.793
NCI-H522,–,–,–,–,–,1.06,0.763,0.917,0.703,0.595,0.705,0.513,0.688,0.62,–,–,–,–,–,0.762
NCI-H727,0.246,0.183,0.495,–,0.299,–,–,–,–,–,0.833,0.596,0.586,0.877,0.998,0.689,0.876,–,0.744,0.529
NCI-H1299,1.05,0.935,0.979,0.968,0.955,–,–,–,–,–,–,–,–,–,1.06,0.998,1.01,0.983,1.01,–
NCI-H1395,1.12,1.01,1.24,0.855,1.09,0.961,0.825,0.736,0.519,0.434,0.616,0.618,0.61,0.564,–,–,–,–,–,0.705
NCI-H1623,–,–,–,–,–,–,–,–,–,–,0.444,0.442,0.336,0.376,–,–,–,–,–,0.421
NCI-H1648,–,–,–,–,–,1.01,1.13,0.828,0.964,0.78,0.279,0.276,0.261,0.26,–,–,–,–,–,0.232
NCI-H1650,–,–,–,–,–,0.343,0.326,0.389,0.334,0.343,0.577,0.601,0.643,0.403,0.18,0.222,0.199,0.211,0.19,0.729
NCI-H1703,0.595,0.669,0.851,0.473,0.771,–,–,–,–,–,–,–,–,–,0.305,0.26,0.248,0.446,0.307,–
NCI-H1793,1,0.677,0.825,–,0.895,0.542,0.754,0.69,0.512,0.502,0.289,–,0.286,0.259,–,–,–,–,–,0.335
NCI-H1944,1.36,1.21,1.08,–,0.99,0.654,0.632,0.577,0.367,0.301,0.445,0.344,0.375,0.314,–,–,–,–,–,0.391
NCI-H2170,–,–,–,–,–,0.263,0.263,0.272,0.223,0.244,0.716,0.642,0.653,0.787,–,–,–,–,–,0.784
NCI-H2342,–,–,–,–,–,0.75,0.782,0.736,0.474,0.76,0.618,0.634,0.489,0.558,–,–,–,–,–,0.579
SK-MES-1,1.02,1.06,1.16,1.1,0.95,1.08,0.941,0.829,0.66,0.46,0.584,0.643,0.558,0.528,–,–,–,–,–,0.684
SW 900,–,–,–,–,–,0.526,0.49,0.439,0.442,0.444,0.487,0.597,0.434,0.75,–,–,–,–,–,0.701
